The conditions of series [1]: cited from earlier work.
The conditions of series [2]: in vivo; cited from earlier work.
Series [3] deals with 5180 solid type [5180实体型]. The note with it: cited from earlier work.
The subject of series [4] is HCA ascites type [HCA腹水型]. The note with it: mice bearing HCA ascites type; cited from earlier work.
For series [5] the following is noted: in vivo and in vitro; cited from earlier work.
The conditions of series [6]: cited from earlier work. This is another data set of the same source.
For series [7] the following is noted: cited from earlier work. The source holds these as a separate data set.
Series [8] relates to Lewis lung cancer [Lewis肺癌]. The settings on record: solid tumor; cited from earlier work.
For the next series, the system named is HCA solid type [HCA实体型]. The settings on record: cited from earlier work.
In series [9] the test system is 5180 ascites type [5180腹水型]. The note with it: mice bearing 5180 ascites type; cited from earlier work.
The subject of series [10] is lung cancer A549 tumor cells [肺癌A549肿瘤细胞]. The series can be described thus: MTT assay, A549 lung cancer tumor cells (Example 33). The series is classed as cell-based. The settings on record: 48 h, positive control. Background: Formazan colour is commonly taken as a measure of viable cells.

As to `C=C1C(=O)[C@@]23[C@H](O)C[C@@H]4C(C)(C)C(=O)CC[C@@]4(C)[C@@H]2CC[C@@H]1[C@H]3O` [蓝萼甲素], the “anticancer effect in vitro” value in [1] was “明显的抗癌作用”. Moreover, in series [2], the elimination result was “药物在体内消除很快” and the half-life result is reported as “半衰期短”. Moreover, the “inhibition of tumor growth” value in series [3] is on record as “能抑制”. The life prolongation rate entry in [4] is on record as “明显增加”. Further, in [5], the antitumor effect entry is recorded as “较强的抗肿瘤作用”, the antitumor spectrum result is recorded as “抗瘤谱较广” and the “dose dependence of antitumor effect” value is on record as “呈剂量依赖性”. In addition, the “solubility in nonpolar solvents” value in series [6] (chloroform and other nonpolar solvents) is listed as “易溶于氯仿等非极性溶剂”. In addition, the solubility in water entry in series [6] (water) is “在水中不溶”. Besides, the “requirement for efficacy in vivo” value in series [7] is given as “需大剂量长时间用药才能产生药效”. Further, the “inhibition of tumor growth” value in series [8] is recorded as “能抑制”. Further, the “inhibition of tumor growth” value in the series with HCA solid type [HCA实体型] is recorded as “能抑制”. The life prolongation rate result in [9] is “明显增加”.

Regarding `COc1cccc2c1C(=O)c1c(O)c3c(c(O)c1C2=O)C[C@@](O)(C(=O)CO)C[C@@H]3O[C@H]1C[C@H](N)[C@H](O)[C@H](C)O1` [阿霉素], the “A value (490nm)” value was 0.452 ± 0.057 in series [10] (0.01l/ml), 0.406 ± 0.075 in [10] (0.1μl/ml) and 0.370 ± 0.087 in [10] (1μl/ml). The values for the inhibition rate in series [10] (0.01l/ml), in series [10] (0.1μl/ml) and in [10] (1μl/ml) were 59.46%, 73.31% and 81.21%, respectively.

These data come from patent CN101993370A, “蓝萼甲素酸酯衍生物及其制备方法和应用” (SHANGHAI JINHAO PHARMACEUTICAL DEVELOPMENT Co Ltd, priority 2009, dated 2011).
